Measured values reported in article PMC5384962, “First-in-human studies of seletalisib, an orally bioavailable small-molecule PI3Kδ inhibitor for the treatment of immune and inflammatory diseases” (European Journal of Clinical Pharmacology, 2017).
Read-outs that look alike come from different tables or passages of the source.

How the values were obtained:
[1] = Study-2 multiple-dose day 14 pharmacokinetics (plasma); assay type: in vivo, human; settings: for CLss/F / Cmaxss / Vzss/F / AUC(0-t) / MRT / half-life / LF: geo mean (GeoCV%); for AUC(0-t) / MRT / half-life / Tmax: human, plasma, oral; for LF: linearity factor AUC(0–24)ss/AUC
Description: These were phase I, randomised, double-blind, placebo-controlled studies designed to evaluate the safety, tolerability, PK and PD profiles of seletalisib following oral administration of single ascending doses and multiple ascending doses. Study-1 was a first-in-human, double-blind (sponsor-, investigator- and subject-blind) study that had two parts: Part-A evaluated seletalisib (single ascending doses) in healthy adults (including evaluation of food effects; Table 1); Part-B evaluated seletalisib (multiple ascending doses) in healthy adults and subjects with mild-to-moderate psoriasis. Study-2 was also a double-blind study of seletalisib (single and multiple ascending doses) in healthy subjects, which investigated higher doses.
Plasma concentrations of seletalisib were measured by high-performance liquid chromatography with tandem mass spectrometry (see Online Resource S1 for further details). The following PK parameters were determined in each study: AUC for seletalisib, maximum observed plasma concentration of seletalisib after a single dose (Cmax) and at steady-state (Cmaxss), time of occurrence of Cmax (tmax, obtained directly from the observed plasma concentration-time curves), minimum observed plasma concentration of seletalisib at steady-state immediately before the next dose would be administered (Ctrough), apparent terminal half-life, apparent volume of distribution after single dosing (Vz/F) and at steady-state (Vzss/F) and apparent total body clearance after single dosing (CL/F) and at steady-state (CLss/F). Accumulation factor based on AUC(0–24) [R(AUC)] and accumulation factor based on Cmax [R(Cmax)] were determined on multiple dose day 14. The following study-specific PK parameters were also determined: Study-1, total amount of seletalisib excreted in urine (Ae), renal clearance (CLr) and fraction of drug excreted in urine; Study-2, AUC(0–10) in BID dose groups, terminal elimination rate constant in plasma (λz), mean residence time (MRT) and linearity factor (LF [AUC(0–24)ss/AUC]).
Methods for the calculation of seletalisib PK parameters are detailed in Online Resource S1.
Seletalisib PK parameters were calculated via non-compartmental analysis methods from the individual concentration-time data using Phoenix WinNonlin version 6.2 (Certara, Princeton, NJ, USA). Urine (Study-1 only) and plasma PK parameters of seletalisib were reported for each subject and summarised by study part and dose group. Geometric mean and percentage geometric coefficient of variation (GeoCV%) were reported for all parameters except for tmax, which was reported using median and range. Dose proportionality for AUC and Cmax at Day_1 (Study-1 [Part-A & Part-B]; Study-2, single ascending dose-Day_1) and at steady state at Day_14 (Study-1 [Part-B]; Study-2, multiple ascending dose-Day_14) was examined via the power model and reported graphically. In Study-1, an assessment of food effect (fed versus fasted) was made for Cmax and AUC from the data for subjects who received the same dose in fed and fasted states in Part-A.

[2] = Study-1 Part-A safety/tolerability (adverse events), single doses; settings: for Deaths: Study-1 Part-A
Procedure: Study-1 (Part-A), comprised single doses of seletalisib (1, 5, 10 and 15 mg) administered to healthy subjects using an alternating panel approach (Table 1). Panel 1 consisted of 17 subjects and panel 2 of 18 subjects. In each panel subjects were randomised to one of three sequences and received different ascending doses of seletalisib or placebo over three (panel 1) or two (panel 2) periods (Table 1). In the third period of panel 1, a preliminary assessment of food effect was made, all subjects received seletalisib 5 mg 30 min after a high-fat, high-calorie meal.
Adverse events (AEs), serious AEs (SAEs), routine clinical laboratory parameters, vital signs and ECGs were monitored throughout the study periods and for ≤7 days post-administration of final-dose of seletalisib/placebo. The potential for seletalisib to cause gastrointestinal (GI) tract adverse effects was assessed by careful monitoring of subject reports of AEs such as abdominal pain, bloating, nausea, vomiting and alteration of bowel function (e.g. diarrhoea, constipation or bleeding). A formal safety review was conducted before each dose escalation. In Study-1 (Part-B), the potential for seletalisib to interfere with insulin signalling was assessed by monitoring blood glucose and C-peptide levels as part of the standard laboratory tests and by performance of oral glucose tolerance tests, measuring glucose and C-peptide levels, pre-dose and during exposure in all cohorts.
In each study, the primary population for analysis was the full analysis set (FAS), which comprised all subjects who had received ≥1 dose of seletalisib or placebo. PK analysis was performed on the PK per-protocol set (PK-PPS), which was a subset of the FAS consisting of subjects with no important protocol deviations likely to affect PK variables who received seletalisib; subjects who received placebo were excluded from this analysis. In Study-1 and Study-2, sample sizes of 57 and 36 subjects, respectively, were considered sufficient to permit assessment of the safety and tolerability of seletalisib and were not based on statistical considerations of power and sample size. In Study-1 (Part-A), a panel size of 15 subjects was selected to achieve good estimates of the PK/PD parameters.

[3] = tested on: basophil degranulation; assay: Study-2 ex vivo basophil degranulation (anti-FcεR1-driven CD63 expression, whole blood); settings: Study-2, single dose, by 4 h post-dose on day 1, range across groups
Procedure: Subjects were assessed for basophil degranulation following stimulation at multiple time points, as described in Online Resource S1.
Degranulation of basophils was determined in whole blood by monitoring increased cell surface CD63 expression utilizing flow cytometry in an ex vivo stimulation assay driven by anti-IgE (Study-1) or anti-FcεR1 (Study-2). Briefly, blood was collected in lithium-heparin tubes (BD Biosciences, Oxford, UK) and stimulated with IgE or FcεRI cross-linking antibodies (eBiosciences, Hatfield, UK) for 12 min at 37°C. Following red blood cell lysis by addition of BD FACSlyse (BD Biosciences, Oxford, UK), samples were centrifuged and the supernatant discarded. The cell pellet was washed in PBS and re-suspended in fixative (5% formaldehyde in PBS). CD63 expression was determined on basophils (side-scatter low, CD123+HLA-DR-) and detected by flow cytometry using the BD antibody cocktail containing CD63, CD123, and anti-HLA-DR.

[4] = power model, Study-2 multiple-dose Day 14, QD groups

Question: For `[O-][n+]1cccc(-c2nc3c(Cl)cccc3cc2[C@@H](Nc2ncnc3cccnc23)C(F)(F)F)c1` [Seletalisib, seletalisib], which CLss/F ([1]; Study-2, 30 mg QD, Day 14) is on record?
Answer: Its CLss/F is 2.13 (39.1) L/h.

Question: And the Cmaxss ([1]; Study-2, 30 mg QD, Day 14)?
Answer: Its Cmaxss is 897.8 (35.4) ng/mL.

Question: And the Vzss/F ([1]; Study-2, 30 mg QD, Day 14)?
Answer: The Vzss/F was 64.8 (24.2) L.

Question: And the CLss/F ([1]; Study-2, 45 mg QD, Day 14)?
Answer: Its CLss/F is 2.65 (36.9) L/h.

Question: What about the Cmaxss ([1]; Study-2, 45 mg QD, Day 14) of the same molecule?
Answer: Its Cmaxss is 1114 (27.7) ng/mL.

Question: What about the Vzss/F ([1]; Study-2, 45 mg QD, Day 14) of the same molecule?
Answer: Its Vzss/F is 74.5 (27.9) L.

Question: And the CLss/F ([1]; Study-2, 60 mg QD, Day 14)?
Answer: Its CLss/F is 2.00 (32.5) L/h.

Question: What about the Cmaxss ([1]; Study-2, 60 mg QD, Day 14) of the same molecule?
Answer: Its Cmaxss is 1957 (30.2) ng/mL.

Question: What about the Vzss/F ([1]; Study-2, 60 mg QD, Day 14) of the same molecule?
Answer: The Vzss/F was 56.7 (33.3) L.

Question: And the CLss/F ([1]; Study-2, 90 mg QD, Day 14)?
Answer: The CLss/F was 2.33 (19.7) L/h.

Question: What about the Cmaxss ([1]; Study-2, 90 mg QD, Day 14) of the same molecule?
Answer: The Cmaxss was 2355 (17.8) ng/mL.

Question: What about the Vzss/F ([1]; Study-2, 90 mg QD, Day 14) of the same molecule?
Answer: The Vzss/F was 68.0 (23.9) L.

Question: What about the AUC(0-t) ([1]; 30 mg, Study-2, 30 mg BID, Day 14, read-out: AUC(0–10)) of the same molecule?
Answer: The AUC(0-t) was 10600 ng·h/mL.

Question: And the AUC(0-t) ([1]; 30 mg, Study-2, 30 mg QD, Day 14, read-out: AUC(0–24))?
Answer: The AUC(0-t) was 14100 ng·h/mL.

Question: And the AUC(0-t) ([1]; 30 mg, Study-2, 30 mg QD, Day 14, read-out: AUC(0–t))?
Answer: Its AUC(0-t) is 24900 ng·h/mL.

Question: And the AUC(0-t) ([1]; 45 mg, Study-2, 45 mg QD, Day 14, read-out: AUC(0–24))?
Answer: The AUC(0-t) was 17000 ng·h/mL.

Question: And the AUC(0-t) ([1]; 45 mg, Study-2, 45 mg QD, Day 14, read-out: AUC(0–t))?
Answer: The AUC(0-t) was 30100 ng·h/mL.

Question: What about the AUC(0-t) ([1]; 60 mg, Study-2, 60 mg QD, Day 14, read-out: AUC(0–24)) of the same molecule?
Answer: Its AUC(0-t) is 30000 ng·h/mL.

Question: What about the AUC(0-t) ([1]; 60 mg, Study-2, 60 mg QD, Day 14, read-out: AUC(0–t)) of the same molecule?
Answer: Its AUC(0-t) is 51600 ng·h/mL.

Question: And the AUC(0-t) ([1]; 90 mg, Study-2, 90 mg QD, Day 14, read-out: AUC(0–24))?
Answer: Its AUC(0-t) is 38600 ng·h/mL.

Question: And the AUC(0-t) ([1]; 90 mg, Study-2, 90 mg QD, Day 14, read-out: AUC(0–t))?
Answer: The AUC(0-t) was 67600 ng·h/mL.

Question: What about the MRT ([1]; Study-2, 30 mg QD, Day 14) of the same molecule?
Answer: The MRT was 24.9 h.

Question: What about the half-life ([1]; Study-2, 30 mg QD, Day 14) of the same molecule?
Answer: The half-life was 24.6 h.

Question: And the Tmax ([1]; Study-2, 30 mg QD, Day 14, median (range), read-out: tmax)?
Answer: The Tmax was 4 h.

Question: What about the MRT ([1]; Study-2, 45 mg QD, Day 14) of the same molecule?
Answer: Its MRT is 25.1 h.

Question: And the half-life ([1]; Study-2, 45 mg QD, Day 14)?
Answer: Its half-life is 28.5 h.

Question: What about the Tmax ([1]; Study-2, 45 mg QD, Day 14, median (range), read-out: tmax) of the same molecule?
Answer: Its Tmax is 4 h.

Question: What about the MRT ([1]; Study-2, 60 mg QD, Day 14) of the same molecule?
Answer: Its MRT is 24.2 h.

Question: And the half-life ([1]; Study-2, 60 mg QD, Day 14)?
Answer: The half-life was 24.6 h.

Question: And the Tmax ([1]; Study-2, 60 mg QD, Day 14, median (range), read-out: tmax)?
Answer: Its Tmax is 3.5 h.

Question: And the MRT ([1]; Study-2, 90 mg QD, Day 14)?
Answer: Its MRT is 24.7 h.

Question: And the half-life ([1]; Study-2, 90 mg QD, Day 14)?
Answer: Its half-life is 24.6 h.

Question: What about the Tmax ([1]; Study-2, 90 mg QD, Day 14, median (range), read-out: tmax) of the same molecule?
Answer: The Tmax was 4 h.

Question: And the Tmax ([1]; Study-2, day 14, fed, range across groups, read-out: time to peak plasma concentration)?
Answer: Its Tmax is 3.5 to 4 h.

Question: And the LF ([1]; Study-2, 30 mg QD, Day 14)?
Answer: Its LF is 1.275 (16.7).

Question: What about the LF ([1]; Study-2, 45 mg QD, Day 14) of the same molecule?
Answer: The LF was 1.028 (26.4).

Question: And the LF ([1]; Study-2, 60 mg QD, Day 14)?
Answer: Its LF is 1.160 (31.8).

Question: And the LF ([1]; Study-2, 90 mg QD, Day 14)?
Answer: The LF was 1.127 (25.9).

Question: What about the “Dose proportionality of Cmaxss (ng/mL): Dose (beta), Estimate” value [1, 4] of the same molecule?
Answer: Its value is 0.96.

Question: What about the “Dose proportionality of Cmaxss (ng/mL): Intercept, Estimate” value [1, 4] of the same molecule?
Answer: Its value is 3.52.

Question: And the Deaths ([2]; seletalisib total)?
Answer: The Deaths was 0 n (%).

Question: What about the Deaths ([2]; single dose 1 mg) of the same molecule?
Answer: The Deaths was 0 n (%).

Question: And the Deaths ([2]; single dose 5 mg)?
Answer: The Deaths was 0 n (%).

Question: What about the Deaths ([2]; single dose 5 mg fed) of the same molecule?
Answer: Its Deaths is 0 n (%).

Question: What about the Deaths ([2]; single dose 10 mg) of the same molecule?
Answer: The Deaths was 0 n (%).

Question: What about the Deaths ([2]; single dose 15 mg) of the same molecule?
Answer: The Deaths was 0 n (%).

Question: What about the “Any AE” value ([2]; human, in vivo) of the same molecule?
Answer: Its value is 13 (39.4) n (%).

Question: And the “Discontinuations due to AEs” value ([2]; human, in vivo)?
Answer: Its value is 0 n (%).

Question: What about the “Drug-related AEs” value ([2]; human, in vivo) of the same molecule?
Answer: The value was 2 (6.1) n (%).

Question: What about the Headache ([2]; human, in vivo) of the same molecule?
Answer: Its Headache is 4 (12.1) n (%).

Question: And the “Serious AEs” value ([2]; human, in vivo)?
Answer: The value was 0 n (%).

Question: And the “Severe AEs” value ([2]; human, in vivo)?
Answer: Its value is 0 n (%).

Question: What about the “number of moderate-intensity AEs” value ([2]; in vivo) of the same molecule?
Answer: The value was “three”.

Question: And the “inhibition of basophil degranulation” value [3]?
Answer: The value was 80.3–92.5%.
